Source: ChEMBL document CHEMBL1201862, “PubChem BioAssay data set” (2004)
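Results reflect a 48-hour exposure of cells in 96-well plates to compound at five concentrations. GI50: concentration for 50% inhibition of growth.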 Active and inactive are the calls of the source. Rule as the data show it: active = GI50 up to about 1.1 µM and inactive = higher.

Columns and labels:
Experiment in all cases: NCI-60 cell line screen, 48 h
786-0 = system: 786-0
A498 = system: A498
A549 = system: A549
ACHN = system: ACHN
BT-549 = system: BT-549
CAKI-1 = system: CAKI-1
CCRF-CEM = system: CCRF-CEM
COLO 205 = system: COLO 205
DU-145 = system: DU-145
EKVX = system: EKVX
HCC 2998 = system: HCC 2998
HCT-116 = system: HCT-116
HCT-15 = system: HCT-15
HL-60 = system: HL-60
HOP-62 = system: HOP-62
HOP-92 = system: HOP-92
HT-29 = system: HT-29
Hs-578T = system: Hs-578T
IGROV-1 = system: IGROV-1
K562 = system: K562
KM12 = system: KM12
LOX IMVI = system: LOX IMVI
M14 = system: M14
MCF7 = system: MCF7
MDA-MB-231 = system: MDA-MB-231
MDA-MB-435 = system: MDA-MB-435
MDA-N = system: MDA-N
MOLT-4 = system: MOLT-4
Malme-3M = system: Malme-3M
NCI-H226 = system: NCI-H226
NCI-H23 = system: NCI-H23
NCI-H460 = system: NCI-H460
NCI-H522 = system: NCI-H522
NCI/ADR-RES = system: NCI/ADR-RES
OVCAR-3 = system: OVCAR-3
OVCAR-4 = system: OVCAR-4
OVCAR-5 = system: OVCAR-5
OVCAR-8 = system: OVCAR-8
PC-3 = system: PC-3
RPMI-8226 = system: RPMI-8226
RXF 393 = system: RXF 393
SF-268 = system: SF-268
SF-295 = system: SF-295
SF-539 = system: SF-539
SK-MEL-28 = system: SK-MEL-28
SK-MEL-2 = system: SK-MEL-2
SK-MEL-5 = system: SK-MEL-5
SK-OV-3 = system: SK-OV-3
SN12C = system: SN12C
SNB-19 = system: SNB-19
SNB-75 = system: SNB-75
SR = system: SR
SW-620 = system: SW-620
T47D = system: T47D
TK-10 = system: TK-10
U-251 = system: U-251
UACC-257 = system: UACC-257
UACC-62 = system: UACC-62
UO-31 = system: UO-31

S=C1N=C(Cl)/C(=C\c2ccccc2)N1
GI50 (786-0): > 100 µM (inactive)
GI50 (A498): > 100 µM (inactive)
GI50 (A549): > 83.6 µM (inactive)
GI50 (ACHN): > 100 µM (inactive)
GI50 (BT-549): > 100 µM (inactive)
GI50 (CAKI-1): > 100 µM (inactive)
GI50 (CCRF-CEM): > 31.6 µM (inactive)
GI50 (COLO 205): > 100 µM (inactive)
GI50 (DU-145): > 100 µM (inactive)
GI50 (EKVX): > 100 µM (inactive)
GI50 (HCC 2998): 1.06 µM (active)
GI50 (HCT-116): > 100 µM (inactive)
GI50 (HCT-15): > 100 µM
GI50 (HL-60): > 100 µM (inactive)
GI50 (HOP-62): > 100 µM (inactive)
GI50 (HOP-92): > 100 µM (inactive)
GI50 (HT-29): > 100 µM (inactive)
GI50 (Hs-578T): > 100 µM (inactive)
GI50 (IGROV-1): > 100 µM (inactive)
GI50 (K562): > 100 µM (inactive)
GI50 (KM12): > 87.7 µM (inactive)
GI50 (LOX IMVI): > 100 µM (inactive)
GI50 (M14): > 100 µM (inactive)
GI50 (MCF7): > 100 µM (inactive)
GI50 (MDA-MB-231): > 100 µM (inactive)
GI50 (MDA-MB-435): > 100 µM (inactive)
GI50 (MDA-N): > 100 µM (inactive)
GI50 (MOLT-4): > 100 µM (inactive)
GI50 (Malme-3M): > 83.6 µM (inactive)
GI50 (NCI-H226): > 100 µM (inactive)
GI50 (NCI-H23): > 100 µM (inactive)
GI50 (NCI-H460): > 100 µM (inactive)
GI50 (NCI-H522): > 100 µM (inactive)
GI50 (NCI/ADR-RES): > 100 µM (inactive)
GI50 (OVCAR-3): > 100 µM (inactive)
GI50 (OVCAR-4): > 100 µM (inactive)
GI50 (OVCAR-5): > 100 µM (inactive)
GI50 (OVCAR-8): > 100 µM (inactive)
GI50 (PC-3): > 100 µM (inactive)
GI50 (RPMI-8226): > 100 µM (inactive)
GI50 (RXF 393): > 100 µM (inactive)
GI50 (SF-268): > 100 µM (inactive)
GI50 (SF-295): > 100 µM (inactive)
GI50 (SF-539): > 100 µM (inactive)
GI50 (SK-MEL-28): > 100 µM (inactive)
GI50 (SK-MEL-2): > 100 µM (inactive)
GI50 (SK-MEL-5): > 100 µM (inactive)
GI50 (SK-OV-3): > 100 µM (inactive)
GI50 (SN12C): > 100 µM (inactive)
GI50 (SNB-19): > 100 µM (inactive)
GI50 (SNB-75): > 100 µM (inactive)
GI50 (SR): > 100 µM (inactive)
GI50 (SW-620): > 100 µM (inactive)
GI50 (T47D): > 100 µM (inactive)
GI50 (TK-10): > 100 µM (inactive)
GI50 (U-251): > 100 µM (inactive)
GI50 (UACC-257): > 100 µM (inactive)
GI50 (UACC-62): > 100 µM (inactive)
GI50 (UO-31): > 100 µM (inactive)

NC(Cc1ccc(OCc2ccccc2)cc1)C(=O)NC(Cc1ccccc1)C(=O)Oc1c(Cl)c(Cl)c(Cl)c(Cl)c1Cl (stereo unspecified)
GI50 (A498): 20.9 µM (inactive)
GI50 (A549): 18.4 µM (inactive)
GI50 (ACHN): 16.5 µM (inactive)
GI50 (BT-549): 17.5 µM (inactive)
GI50 (CAKI-1): 16.7 µM (inactive)
GI50 (CCRF-CEM): > 100 µM (inactive)
GI50 (COLO 205): 14.6 µM (inactive)
GI50 (DU-145): 12.8 µM (inactive)
GI50 (EKVX): 17.7 µM (inactive)
GI50 (HCC 2998): 19.1 µM (inactive)
GI50 (HCT-116): 17.5 µM (inactive)
GI50 (HCT-15): 16.4 µM
GI50 (HL-60): 69.5 µM (inactive)
GI50 (HOP-62): 16.6 µM (inactive)
GI50 (HOP-92): 11.9 µM (inactive)
GI50 (HT-29): 17.5 µM (inactive)
GI50 (Hs-578T): 14 µM (inactive)
GI50 (IGROV-1): 15.3 µM (inactive)
GI50 (K562): 53.1 µM (inactive)
GI50 (KM12): 15.4 µM (inactive)
GI50 (LOX IMVI): 14 µM (inactive)
GI50 (M14): 14.2 µM (inactive)
GI50 (MCF7): 19 µM (inactive)
GI50 (MDA-MB-231): 13 µM (inactive)
GI50 (MDA-MB-435): 18.3 µM (inactive)
GI50 (MDA-N): 12.7 µM (inactive)
GI50 (MOLT-4): 39.2 µM (inactive)
GI50 (Malme-3M): 20.9 µM (inactive)
GI50 (NCI-H226): 13.2 µM (inactive)
GI50 (NCI-H23): 16.8 µM (inactive)
GI50 (NCI-H460): 14.7 µM (inactive)
GI50 (NCI-H522): 23.1 µM (inactive)
GI50 (NCI/ADR-RES): 17.9 µM (inactive)
GI50 (OVCAR-3): 15.5 µM (inactive)
GI50 (OVCAR-4): 17.4 µM (inactive)
GI50 (OVCAR-5): 15.6 µM (inactive)
GI50 (OVCAR-8): 16.5 µM (inactive)
GI50 (PC-3): 17.7 µM (inactive)
GI50 (RPMI-8226): 40.9 µM (inactive)
GI50 (RXF 393): 15 µM (inactive)
GI50 (SF-268): 20.3 µM (inactive)
GI50 (SF-539): 16.7 µM (inactive)
GI50 (SK-MEL-28): 16.5 µM (inactive)
GI50 (SK-MEL-2): 13.3 µM (inactive)
GI50 (SK-MEL-5): 17.3 µM (inactive)
GI50 (SK-OV-3): 14.7 µM (inactive)
GI50 (SN12C): 17.3 µM (inactive)
GI50 (SNB-19): 17.7 µM (inactive)
GI50 (SNB-75): 15.7 µM (inactive)
GI50 (SR): 54.1 µM (inactive)
GI50 (SW-620): 16.8 µM (inactive)
GI50 (T47D): 17.9 µM (inactive)
GI50 (TK-10): 15.3 µM (inactive)
GI50 (U-251): 17.1 µM (inactive)
GI50 (UACC-257): 15.9 µM (inactive)
GI50 (UACC-62): 17 µM (inactive)
GI50 (UO-31): 16.4 µM (inactive)
